Measured values as given in US10350206B2, “Benzyl substituted indazoles as BUB1 inhibitors” (Bayer Pharma Aktiengesellschaft, priority 2014, dated 2019).

Key:
[1] = test system: HeLa human cervical tumor cells; assay: Proliferation assay (HeLa cell line); assay type: cell-based; conditions: 96 h, 4 days incubation, crystal violet, read-out: Biological Assay 2: Proliferation assay (HeLa cell line) median IC50
[2] = test system: Bub1 kinase (pre-induced phospho-histone 2A); assay: H2A Abrogation-Assay (cell-based mechanistic assay, pre-treatment with Nocodazole); conditions: Nocodazole 1 μg/ml 16 h, then test compound 1 h; read-out: Biological Assay 4.2: H2A Abrogation IC50

Row | Compound | IC50 [1] [nM] | IC50 [2] [nM]
1 | COc1cnc(-c2nn(Cc3c(F)cc(OCCO)cc3F)c3ccccc23)nc1Nc1ccnc(C)c1 [Example 2-1-2, 2-{3,5-difluoro-4-[(3-{5-methoxy-4-[(2-methylpyridin-4-yl)amino]pyrimidin-2-yl}-1H-indazol-1-yl)methyl]phenoxy}ethanol] | 1300 | 11
2 | COc1cnccc1Nc1nc(-c2nn(Cc3c(F)cc(OCCO)cc3F)c3ccccc23)ncc1OC [Example 2-1-3, 2-{3,5-difluoro-4-[(3-{5-methoxy-4-[(3-methoxypyridin-4-yl)amino]pyrimidin-2-yl}-1H-indazol-1-yl)methyl]phenoxy}ethanol] | 1700 | 29
